The subject of series [1] is snake venom phosphodiesterase (Crotalus admanteus venom phosphodiesterase (CAVP)).
The test system of series [2] is sense strand (5′-AAAAAAAAAA-3′; SEQ ID NO: 4). Briefly: Melting temperature (Tm) test of antisense strand annealed with sense strand. The note with it: duplex with sense strand 5′-AAAAAAAAAA-3′; UV absorption at 260 nm.
Procedure: A mixture of 1 mL of the sense strand (0.5 OD/mL) and 1 mL of the antisense strand (0.5 OD/mL) was mixed and stirred evenly, heated at 90° C. for 10 min, and then cooled to room temperature. A Tm value of the sample was measured using an ultraviolet spectrophotometer (Agilent, Cary 3500 UV-Vis), the sample was placed in a cuvette with a cap and a temperature probe, a temperature was set to be raised from 20-25° C. to 70-80° C. at a rate of 0.5° C. or 1.0° C. per minute, and ultraviolet absorption at 260 nm was measured at an interval of 0.5° C.

Consider “5′-TTTTTTTTTT-3′ [Control antisense strand]”, for which, in series [1], the “degradation by nuclease (in words)” value was “almost completely degraded”. In addition, in series [2], the Tm (usually the temperature at the midpoint of the melting transition) turned out to be 43 °C.

The values above are taken from patent US20250230146A1, “CARBOCYCLIC NUCLEOSIDE, OLIGONUCLEOTIDE AND PREPARATION METHODS THEREFOR AND MEDICAL USES THEREOF” (REDFIELD PHARMACEUTICAL INC., priority 2023, published 2025).
